Results: patent US9440930B2, “Substituted bicyclic dihydropyrimidinones and their use as inhibitors of neutrophil elastase activity” (Boehringer Ingelheim International GmbH, priority 2014, dated 2016)

Experiments:
[1] = target: T1, neutrophil elastase in human plasma (Homo sapiens, UniProt P08246); experiment: Neutrophil elastase inhibitory activity in human plasma; format: biochemical; conditions: zymosan-stimulated human plasma, substrate MeOSuc-Ala-Ala-Pro-Val-AMC 250 μM
T1 construct: The stimulated blood is centrifuged to generate the neutrophil elastase enriched plasma; from tissue; host or cells: plasma from zymosan-stimulated citrated whole blood of healthy human donors
T1 sequence (P08246 30-267): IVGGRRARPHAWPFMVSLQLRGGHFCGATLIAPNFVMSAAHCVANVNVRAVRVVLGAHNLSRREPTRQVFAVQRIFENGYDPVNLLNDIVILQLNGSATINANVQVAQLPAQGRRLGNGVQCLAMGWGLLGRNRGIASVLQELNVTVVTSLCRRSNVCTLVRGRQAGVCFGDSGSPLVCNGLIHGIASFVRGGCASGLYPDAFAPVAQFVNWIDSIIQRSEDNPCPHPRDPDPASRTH
Procedure: Assay for the Determination of Neutrophil Elastase Inhibitory Activity in Human Plasma
Citrated blood from human healthy donors is mixed with zymosan suspension and incubated at room temperature. This leads to the stimulation of neutrophils and the release of neutrophil elastase into the plasma. The stimulated blood is centrifuged to generate the neutrophil elastase enriched plasma.
• A single 45 ml blood sample is taken into a 50 ml tube containing citrate (3.13%, 5 mL) and the tube is gently inverted 4 times. • Immediately after blood sampling, zymosan working solution (5 mL) is added. • After the addition of zymosan working solution, the tubes are capped, mixed gently and incubated at 22° C. for 15 min on a shaker at 20 rpm. • Make 10 ml aliquots after the incubation time. • Centrifuge the 15 ml tubes at 800 g for 15 min at 4° C. in a Jouan centrifuge. • Harvest the plasma and make 1-5 ml aliquots. • Store the plasma at −80° C.
A dose response curve is generated to calculate the EC50 of the inhibitor. The analysis of the data is performed by the calculation of the percentage of fluorescence in the presence of the test compound compared to the fluorescence of the vehicle control after subtracting the background fluorescence: An inhibitor of the neutrophil elastase enzyme will give values between 100% control (no inhibition) and 0% control (complete inhibition).

[2] = Metabolic stability with human liver microsomes; format: in vitro ADME; conditions: pooled human liver microsomes, pH 7.6; human liver microsomes 1 mg/ml, 1 μM compound, 37° C., NADPH; read-out: t1/2 INVITRO
[3] = Drug transport across human Caco-2 cells; format: in vitro ADME; conditions: pH 7.2, 37° C.
From the text: Assay for Determination of Drug Transport Across Human Caco-2 Cells
The assay provides information on the potential of a compound to pass the cell membrane, on the extent of oral absorption as well as on whether the compound is actively transported by uptake and/or efflux transporters. For the measurement of permeability across polarized, confluent human cancer colon carcinoma cells 2 (Caco-2) cell monolayers grown on permeable filter supports are used as the in vitro absorption model.
Apparent permeability coefficients (PE) of the compounds across the Caco-2 monolayers are measured (pH 7.2, 37° C.) in apical-to-basal (AB) (absorptive) and basal-to-apical (BA) (secretory) transport direction. AB permeability (PEAB) represents drug absorption from the intestine into the blood and BA permeability (PEBA) drug secretion from the blood back into the intestine via both passive permeability as well as active transport mechanisms mediated by efflux and uptake transporters that are expressed on the Caco-2 cells. The compounds are assigned to permeability/absorption classes by comparison of the AB permeabilities with the AB permeabilities of reference compounds with known in vitro permeability and oral absorption in the human. Identical or similar permeabilities in both transport directions indicate passive permeation, vectorial permeability points to additional active transport mechanisms. […] Active transport is concentration-dependently saturable.
Caco-2 cells (1-2*10^5 cells/cm^2 area) are seeded on filter inserts (Costar transwell polycarbonate or PET filters, 0.4 μm pore size) and cultured (DMEM) for 10 to 25 days. Compounds are dissolved in appropriate solvent (like DMSO, 1-20 min stock solutions). Stock solutions are diluted with HTP-4 buffer (128.13 min NaCl, 5.36 min KCl, 1 mM MgSO4, 1.8 min CaCl2, 4.17 min NaHCO3, 1.19 min Na2HPO4×7H2O, 0.41 mM NaH2PO4×H2O, 15 min HEPES, 20 min glucose, pH 7.2) to prepare the transport solutions (typically 10 μM compound, final DMSO<=0.5%). The transport solution (TL) is applied to the apical or basolateral donor side for measuring A-B or B-A permeability (3 filter replicates), respectively. The receiver side contains HTP-4 buffer supplemented with 2% BSA. Samples are collected at the start and end of experiment from the donor and at various time intervals for up to 2 hours also from the receiver side for concentration measurement by LC-MS/MS or scintillation counting. Sampled receiver volumes are replaced with fresh receiver solution.

EC50 [1]: 1 nM
half-life at 1 μM [2]: > 2.17 h
Papp A→B at 10 µM ([3]; apical-to-basal, read-out: PEAB): 19 ×10⁻⁶ cm/s
Papp B→A at 10 µM ([3]; basal-to-apical, read-out: PEBA): 97 ×10⁻⁶ cm/s
Structure (SMILES): CN1C(=O)N(c2cccc(C(F)(F)F)c2)C2=C(C(=O)CCC2)[C@H]1c1ccc(C#N)cc1[S+](C)[O-] (single isomer, unassigned) [Example 2.2A, 3-Methanesulfinyl-4-[3-methyl-2,5-dioxo-1-(3-trifluoromethyl-phenyl)-1,2,3,4,5,6,7,8-octahydro-quinazolin-4-yl]-benzonitrile]
